In brackets after ≈: the same amount, converted by molar mass.
What was measured:
Type in all cases: functional
Escherichia coli [1] = experiment: Antibacterial activity against quinolone resistance Escherichia coli isolate ELZ4251 harboring gyrA/parC mutant by CLSI M100-S17 protocol based method
Escherichia coli [2] = experiment: Antibacterial activity against wild type Escherichia coli ATCC 25922 by CLSI M100-S17 protocol based method
Acinetobacter baumannii [3] = experiment: Antibacterial activity against fluoroquinolone resistant Acinetobacter baumannii isolate MMX2240 by CLSI M100-S17 protocol based method
Escherichia coli [4] = experiment: Antibacterial activity against wild type Escherichia coli ATCC 25922 in presence of HSA by CLSI M100-S17 protocol based method
Acinetobacter baumannii [5] = experiment: Antibacterial activity against wild type Acinetobacter baumannii ATCC BAA-747 by CLSI M100-S17 protocol based method
Klebsiella pneumoniae = experiment: Antibacterial activity against wild type Klebsiella pneumoniae ATCC 35657 by CLSI M100-S17 protocol based method
Escherichia coli [6] = experiment: Antibacterial activity against fluoroquinolone resistant Escherichia coli SKM18 by CLSI M100-S17 protocol based method

Structure (SMILES)	MIC (Escherichia coli [1])	MIC (Escherichia coli [2])	MIC (Acinetobacter baumannii [3])	MIC (Escherichia coli [4])	MIC (Acinetobacter baumannii [5])	MIC (Klebsiella pneumoniae)	MIC (Escherichia coli [6])
CCc1c(-c2ccc3c(c2)cc(CNC(C)(C)C)n3C)[nH]c(=O)c(C(=O)O)c1O	6.3 µg/mL (≈ 15.9 µM)	0.78 µg/mL (≈ 1.96 µM)	6.3 µg/mL (≈ 15.9 µM)	1.6 µg/mL	0.78 µg/mL (≈ 1.96 µM)	0.78 µg/mL (≈ 1.96 µM)	6.3 µg/mL (≈ 15.9 µM)
CCc1c(-c2ccc3c(c2)c(C)c(C)n3C)[nH]c(=O)c(C(=O)O)c1O	–	> 12.5 µg/mL	–	–	–	–	–
CNCc1cc2cc3c(cc2n1C)NCCc1c-3[nH]c(=O)c(C(=O)O)c1O	> 62.5 µg/mL	31.3 µg/mL (≈ 85 µM)	> 25 µg/mL	–	> 25 µg/mL	6.3 µg/mL (≈ 17.1 µM)	3.9 µg/mL (≈ 10.6 µM)
CC(C)c1c(-c2ccc3c(c2)cc(CN(C)C)n3C)[nH]c(=O)c(C(=O)O)c1O	–	3.1 µg/mL (≈ 8.08 µM)	62.5 µg/mL (≈ 163 µM)	31.3 µg/mL	15.6 µg/mL (≈ 40.7 µM)	3.9 µg/mL (≈ 10.2 µM)	> 62.5 µg/mL
CN(C)CCNCc1cc2cc3c(cc2n1C)CCCc1c-3[nH]c(=O)c(C(=O)O)c1O	–	3.9 µg/mL (≈ 9.19 µM)	62.5 µg/mL (≈ 147 µM)	15.6 µg/mL	15.6 µg/mL (≈ 36.7 µM)	2 µg/mL (≈ 4.71 µM)	0.5 µg/mL (≈ 1.18 µM)
COC1CCN(Cc2cc3cc4c(cc3n2C)CCCc2c-4[nH]c(=O)c(C(=O)O)c2O)C1 (configuration not stated)	–	1.6 µg/mL (≈ 3.66 µM)	3.1 µg/mL (≈ 7.09 µM)	3.1 µg/mL	3.1 µg/mL (≈ 7.09 µM)	3.1 µg/mL (≈ 7.09 µM)	2 µg/mL (≈ 4.57 µM)
CN(C)Cc1cc2cc(-c3cc(O)c(C(=O)O)c(=O)[nH]3)ccc2n1C	–	> 12.5 µg/mL	–	–	–	–	> 12.5 µg/mL
CCc1c(-c2ccc(N(C)C)cc2)[nH]c(=O)c(C(=O)O)c1O	15.6 µg/mL (≈ 51.6 µM)	0.78 µg/mL (≈ 2.58 µM)	6.3 µg/mL (≈ 20.8 µM)	> 62.5 µg/mL	1.6 µg/mL (≈ 5.29 µM)	3.1 µg/mL (≈ 10.3 µM)	15.6 µg/mL (≈ 51.6 µM)
COCCNCc1cc2cc3c(cc2n1C)OCCc1c-3[nH]c(=O)c(C(=O)O)c1O	–	2 µg/mL (≈ 4.84 µM)	7.8 µg/mL (≈ 18.9 µM)	15.6 µg/mL	7.8 µg/mL (≈ 18.9 µM)	2 µg/mL (≈ 4.84 µM)	0.5 µg/mL (≈ 1.21 µM)
Cn1c(CN2CCCC2)cc2cc3c(cc21)COCc1c-3[nH]c(=O)c(C(=O)O)c1O	–	3.1 µg/mL (≈ 7.57 µM)	12.5 µg/mL (≈ 30.5 µM)	–	12.5 µg/mL (≈ 30.5 µM)	3.1 µg/mL (≈ 7.57 µM)	0.39 µg/mL (≈ 0.953 µM)
Cn1c(CN2CCCC2)cc2cc3c(cc21)SCCc1c-3[nH]c(=O)c(C(=O)O)c1O	–	2 µg/mL (≈ 4.7 µM)	3.9 µg/mL (≈ 9.17 µM)	31.3 µg/mL	2 µg/mL (≈ 4.7 µM)	2 µg/mL (≈ 4.7 µM)	2 µg/mL (≈ 4.7 µM)
CCc1c(-c2ccc3c(c2)cc(CNC)n3C)[nH]c(=O)c(C(=O)O)c1O	3.1 µg/mL (≈ 8.72 µM)	0.39 µg/mL (≈ 1.1 µM)	6.3 µg/mL (≈ 17.7 µM)	0.78 µg/mL	0.78 µg/mL (≈ 2.19 µM)	0.78 µg/mL (≈ 2.19 µM)	1.6 µg/mL (≈ 4.5 µM)
CN(C)CCNCc1cc2cc3c(cc2n1C)OCCc1c-3[nH]c(=O)c(C(=O)O)c1O	–	> 62.5 µg/mL	> 62.5 µg/mL	62.5 µg/mL	> 62.5 µg/mL	31.3 µg/mL (≈ 73.4 µM)	7.8 µg/mL (≈ 18.3 µM)
CN(C)Cc1cc2cc3c(cc2n1C)COCc1c-3[nH]c(=O)c(C(=O)O)c1O	–	6.3 µg/mL (≈ 16.4 µM)	25 µg/mL (≈ 65.2 µM)	–	25 µg/mL (≈ 65.2 µM)	3.1 µg/mL (≈ 8.09 µM)	0.78 µg/mL (≈ 2.03 µM)
Cc1c(-c2ccc3c(c2)cc(CN(C)C)n3C)[nH]c(=O)c(C(=O)O)c1O	3.1 µg/mL (≈ 8.72 µM)	6.3 µg/mL (≈ 17.7 µM)	1.6 µg/mL (≈ 4.5 µM)	12.5 µg/mL	6.3 µg/mL (≈ 17.7 µM)	6.3 µg/mL (≈ 17.7 µM)	1.6 µg/mL (≈ 4.5 µM)
CCc1c(-c2ccc3c(c2)cc(CNC(C)C)n3C)[nH]c(=O)c(C(=O)O)c1O	3.1 µg/mL (≈ 8.08 µM)	0.39 µg/mL (≈ 1.02 µM)	3.1 µg/mL (≈ 8.08 µM)	1.6 µg/mL	0.78 µg/mL (≈ 2.03 µM)	0.39 µg/mL (≈ 1.02 µM)	1.6 µg/mL (≈ 4.17 µM)
COCCNCc1cc2cc3c(cc2n1C)CCCc1c-3[nH]c(=O)c(C(=O)O)c1O	1.6 µg/mL (≈ 3.89 µM)	0.78 µg/mL (≈ 1.9 µM)	1 µg/mL (≈ 2.43 µM)	3.1 µg/mL	1.6 µg/mL (≈ 3.89 µM)	0.78 µg/mL (≈ 1.9 µM)	0.5 µg/mL (≈ 1.22 µM)
CCNCc1cc2cc3c(cc2n1C)NCCc1c-3[nH]c(=O)c(C(=O)O)c1O	> 62.5 µg/mL	15.6 µg/mL (≈ 40.8 µM)	> 25 µg/mL	–	> 25 µg/mL	6.3 µg/mL (≈ 16.5 µM)	3.9 µg/mL (≈ 10.2 µM)
CC(C)NCc1cc2cc3c(cc2n1C)COCc1c-3[nH]c(=O)c(C(=O)O)c1O	–	12.5 µg/mL (≈ 31.5 µM)	> 50 µg/mL	–	> 50 µg/mL	3.1 µg/mL (≈ 7.8 µM)	0.78 µg/mL (≈ 1.96 µM)
CCNCc1cc2cc3c(cc2n1C)OCCc1c-3[nH]c(=O)c(C(=O)O)c1O	12.5 µg/mL (≈ 32.6 µM)	0.78 µg/mL (≈ 2.03 µM)	12.5 µg/mL (≈ 32.6 µM)	1.6 µg/mL	12.5 µg/mL (≈ 32.6 µM)	0.78 µg/mL (≈ 2.03 µM)	0.78 µg/mL (≈ 2.03 µM)
CC(C)NCc1cc2cc3c(cc2n1C)NCCc1c-3[nH]c(=O)c(C(=O)O)c1O	62.5 µg/mL (≈ 158 µM)	7.8 µg/mL (≈ 19.7 µM)	> 25 µg/mL	–	> 25 µg/mL	6.3 µg/mL (≈ 15.9 µM)	3.9 µg/mL (≈ 9.84 µM)
CNCc1cc2cc3c(cc2n1C)OCCc1c-3[nH]c(=O)c(C(=O)O)c1O	> 12.5 µg/mL	1.6 µg/mL (≈ 4.33 µM)	> 12.5 µg/mL	3.1 µg/mL	12.5 µg/mL (≈ 33.8 µM)	1.6 µg/mL (≈ 4.33 µM)	0.78 µg/mL (≈ 2.11 µM)
CCc1c(-c2ccc3c(c2)cc(CN2CCCC2)n3C)[nH]c(=O)c(C(=O)O)c1O	6.3 µg/mL (≈ 15.9 µM)	0.78 µg/mL (≈ 1.97 µM)	12.5 µg/mL (≈ 31.6 µM)	–	0.78 µg/mL (≈ 1.97 µM)	0.78 µg/mL (≈ 1.97 µM)	6.3 µg/mL (≈ 15.9 µM)
COC1CCN(Cc2cc3cc4c(cc3n2C)OCCc2c-4[nH]c(=O)c(C(=O)O)c2O)C1 (configuration not stated)	–	3.9 µg/mL (≈ 8.87 µM)	7.8 µg/mL (≈ 17.7 µM)	7.8 µg/mL	3.9 µg/mL (≈ 8.87 µM)	15.6 µg/mL (≈ 35.5 µM)	2 µg/mL (≈ 4.55 µM)
CN(C)Cc1cc2cc3c(cc2n1C)SCCc1c-3[nH]c(=O)c(C(=O)O)c1O	–	2 µg/mL (≈ 5.01 µM)	3.9 µg/mL (≈ 9.76 µM)	31.2 µg/mL	2 µg/mL (≈ 5.01 µM)	2 µg/mL (≈ 5.01 µM)	2 µg/mL (≈ 5.01 µM)
CN(C)Cc1cc2cc(-c3[nH]c(=O)c(C(=O)O)c(O)c3C3CC3)ccc2n1C	–	62.5 µg/mL (≈ 164 µM)	15.6 µg/mL (≈ 40.9 µM)	> 62.5 µg/mL	> 62.5 µg/mL	31.3 µg/mL (≈ 82.1 µM)	31.3 µg/mL (≈ 82.1 µM)

— ChEMBL document CHEMBL4190388, “Discovery and Optimization of Indolyl-Containing 4-Hydroxy-2-Pyridone Type II DNA Topoisomerase Inhibitors Active against Multidrug Resistant Gram-negative Bacteria” (J Med Chem, 2018)
